Series [1] relates to nitrification of urea fertilizer. Kind of series: University of Arkansas soil incubation trial, urea coated with N Bound. The conditions noted are these: Urea without inhibitor. Here is the method:
To determine what minimum effective levels of DCD are required to meet acceptable levels of nitrification inhibition and to maximize performance versus inhibitor level, studies were performed at Auburn University, South Dakota State University and University of Arkansas. These studies were performed by coating urea with a liquid nitrification inhibitor product, trade name N Bound, which contained approximately 28% DCD. The application rates of N Bound on urea (Units are in quarts of N Bound/ton of urea) was varied to measure application level versus the conversion of urea to nitrate measured as mg NO3 extracted from the applied soil.
A trial conducted at University of Arkansas was designed to measure and compare the nitrate concentrations from the microbial activity on untreated urea and ureas coated with N Bound that had been applied to classified as a Calhoun silt loam (pH=7.4) at varying rates. The objective was to determine the minimum inhibitor application rate to achieve optimize nitrification inhibition.

A short description of series [2]: Crush strength of coated urea granules. It counts as physicochemical. The conditions noted are these: New Leader tester scale 1-10 (1 very poor), average of 10 runs. The text has this: Crush strength is the minimum pressure required to crush a granule of urea. Crush strength is of concern during the application of urea and is a measure of the urea's expected broadcast distance. Crush strength is related to the maximum rotations per minute (rpm) for the spinner portion of the urea spreader. The higher the rpms of the spinner, the more distance the urea can be broadcasted. High rpms require high crush strength urea granules in order for the granules not to be pulverized to dust by the broadcast process.
In order for the coated granules of urea to be tested, they were first sifted through a series of screens to ensure that the urea granules to be tested were of similar particle size as the urea particle size has an impact on crush resistance. A mesh size of 320-400 was chosen as the urea particle size. A New Leader crushing strength tester was used utilizing a scale from 1-10 wherein a reading of 1 is rated very poor crush strength. The results in Table 14 are for coated urea stored at 25° C. and at 50° C. Also included in Table 14 is the weight percentage of DMSO of the composition of the coated urea.
However, it should be understood that a different method of applying example 86 to the surfaces of the urea granules might result in better coverage (e.g., atomization onto the granules). […]

Series [3] relates to urease enzyme.
Procedure: The treated urea was prepared as follows:
• 1. Charging weight of urea as directed by Table 8 to a container. • 2. The urea was slowly agitated with overhead stirrer with U shaped agitator blade. • 3. The example was slowly dripped on the urea while mixing in the amount as directed by Table 8 (rate=3 quarts/ton of urea). • 4. […] The coated urea was placed in a jar and sealed.
• 1. In a 6″×9″ rectangular Tupperware sealable container with holes drilled on each end and sealed with tape charge 400 grams of West Texas Sandy Loam Soil and 100 grams of distilled water, mix thoroughly to a consistency of thick “mud” (% moisture should be between 30-40%). • 2. Calculate the surface area to be treated. • a. 6″×9.5″=sq in/1 44 sq in/sq ft=0.395 sq ft • b. 0.395 sq ft/43,560 sq ft/acre=0.0000091 acres • 3. Calculate amount of urea and treated urea to charge to the containers of soil • a. Application Rate: 400 pounds urea per acre • b. 400 lbs/acre/43560 sq ft/acre=0.009 lbs/sq ft×0.395 sq ft/container=0.0036 lbs/container×454 g/lb=1.65 grams urea per container. • c. Add 1.65 grams of urea and various treated ureas to each container • 4. Ammonia Volatilization Screening Test • a. Evenly distribute over the soil in each container 1.65 grams of example to be tested, • b. Seal container, • c. Take readings of ammonia volatilization of each container over a selected period of time as directed in Table 9, • i. Drager tube measurement • (1) Use Drager pump with 0-600 ppm (or range TBD) ammonia drager tube. • (2) At specified times, quickly remove the tape on one end of container and insert the drager tube/pump. • (3) Fully squeeze pump 20 times allowing enough time for pump to fully inflate between each squeeze and then remove the tube from the container and read. • (4) Open container lid and vent the remaining ammonia gas out of the container and reseal. • (5) Repeat procedure at next designated time.
Series [4] is described as follows: Thermal Stability of NBPT (oven exposure, weight loss and HPLC). The conditions noted are these: for % NBPT present by LC/UV % w/w: single determination. The format is physicochemical. Here is the method: One of the advantages of this invention is the application, at moderate temperatures, of thermally sensitive urease inhibitor onto the surfaces of urea. Moderate temperatures are defined as a range of about 20-70° C. Testing procedures were established to exactly weigh samples of approximately 1 gram of NBPT in an aluminum pan and expose them to different temperatures in an oven over varying amounts of time. The initial weight of NBPT in the pan was compared to the final weight of sample in the pan. The % NBPT was then determined by HPLC of the residual from the final weight pan by the following procedure:
1. Crush a portion of sample (˜5 g) using mortar and pestle.
2. Weigh about a 100 mg sample, in duplicate, and add to separate 10 mL volumetric flasks.
3. Bring to volume of 10 ml volumetric flask with 50:50 ACN(Acetonitrile):H2O.
5. Transfer a portion through a Nylon 0.45 μm syringe filter into an HPLC vial.
6. Inject on LC/UV (15-μg/mL calibration standard).

Series [5] can be described thus: Time to dissolution of nitrification inhibitor coated with urease formulation. The format is physicochemical. The conditions noted are these: UAN 30. The text has this:
• 1. In a 4 oz. glass jar add 97 grams of either Deionized (DI) Water or UAN 30. • 2. Add a ¾ inch magnetic stir bar and place on a Corning/Model PC-420 Heater/Stirrer and set stirring speed at #7. • 3. Charge 3 grams of a nitrification inhibitor coated or uncoated and start stop watch. • 4. Visually determine the point at which all particles of the nitrification inhibitor have dissolved and record this time as time to dissolution.

This is an account of results in patent US12139443B2, “Concentrated liquid compositions of urease inhibitors for nitrogen sources” (priority 2017, dated 2024).

Values joined by “and” are separate entries in the source; they are usually repeats but may differ in a detail not shown here. Identical values can stand only once. Like-named read-outs stand apart in the source and are kept apart here.

Turning to `NC(N)=O` [Urea], the “Nitrate-N Concentration” value in series [1] (Day 1, Calhoun silt loam) turned out to be 113.4 mg NO3—N/kg soil; in series [1] (Day 3), 98.6 mg NO3—N/kg soil; in series [1] (Day 7), 151.6 mg NO3—N/kg soil; in series [1] (Day 14), 202.8 mg NO3—N/kg soil; in series [1] (Day 21), 221.2 mg NO3—N/kg soil; in series [1] (Day 28) it was 262.3 mg NO3—N/kg soil. For the same compound, the “Nitrate-N Concentration” value in series [1] (Day 35) worked out at 255.3 mg NO3—N/kg soil. In addition, the “Crush Strength stored 24 hrs. @ 25 C.” value in series [2] came to 5.4. Further, the “Crush Strength stored 24 hrs. @ 50 C.” value in series [2] is on record as 6.75. Moreover, the “Ammonia Reading” value in series [3] (72 hours, 1.65 grams treated urea (3 quarts/ton) on West Texas Sandy Loam Soil) stood at 220 ppm; in series [3] (144 hours), 475 ppm; in series [3] (264 hours) it was 460 ppm.

Consider `CCCCNP(N)(N)=S` [NBPT, N-(n-butyl)thiophosphoric triamide], for which the “% NBPT present by LC/UV Average” value is reported as 99.38% in series [4] (50° C./3600 sec); 99.38% in series [4] (70° C./900 sec); 22.92% in series [4] (100° C./300 sec); 4.67% in series [4] (120° C./180 sec); 3.84% in series [4] (140° C./90 sec); 99.25% in series [4] (NBPT std, not heated). Besides, the “% Weight Loss Average” value in series [4] (50° C./3600 sec) is 0.0%; in series [4] (70° C./900 sec), 0.26%; in series [4] (100° C./300 sec), 10.36%; in series [4] (120° C./180 sec) it was 13.55%; in series [4] (140° C./90 sec) it was 13.42%. Also, the “% NBPT present by LC/UV % w/w” value in series [4] (50° C./3600 sec) was 99.17% and 99.58%; in series [4] (70° C./900 sec), 99.53% and 99.23%; in series [4] (100° C./300 sec), 23.59% and 22.25%; in series [4] (120° C./180 sec), 4.79% and 4.54%; in series [4] (140° C./90 sec), 3.68% and 3.99%; in series [4] (NBPT std, not heated), 99.35% and 99.16%. The “degradation (HPLC)” value in series [4] (15 minutes at 70° C.) is recorded as “no degradation”. Further, in series [4] (temperatures >100° C.), the “thermal stability (HPLC)” value is reported as “poor thermal stability”.

Regarding `N#CN=C(N)N` [DCD untreated, Dicyandiamide], in series [5] (3%), the “Initial Appearance” value is listed as “clear”. In addition, the “Time to Dissolution” value in series [5] (3 grams in 97 grams (3%)) is 1740 s.
